From patent US12030904B2 (priority 2020, dated 2024)
Where two headings read alike, the source gives them in different places.

Key:
[1] = tested on: Recombinant Respiratory Syncytial virus strain A2 containing the firefly luciferase reporter (RSV-Fluc); experiment: microbe, parasite or virus in culture; format: cell-based; conditions: human respiratory syncytial virus, NHBE
[2] = A549 cytotoxicity analysis (CellTiter-Glo); format: cell-based; conditions: human, A549 cells
Description: The cytotoxicity of compounds was determined in A549 cells in the following manner. Compounds (40 nL) were spotted onto 384-well Grenier plates prior to seeding 5000 A549 cells/well in a volume of 40 μL culture medium. The plates were incubated at 37° C. for 48 hours with 5% CO2. On day 2, 40 μL of CellTiter-Glo (Promega) was added and mixed 5 times. Plates were read for luminescence on an Envision (PerkinElmer) and the CC50 (compound concentration for reducing 50% of luminescence signal as a measure of cell viability) were calculated using a nonlinear regression model (four parameters). Two experiments were performed with technical duplicates.

SARS-CoV-2 = experiment: microbe, parasite or virus in culture; format: cell-based
MT4 cytotoxicity (CC50) = conditions: human, MT4 cells
[3] = Severe acute respiratory syndrome coronavirus 2, read-out: SARS EC50

| Structure (SMILES) | CC50 (MT4 cytotoxicity (CC50); MT4 CC50, Table 4) | EC50 ([1]; read-out: RSV EC50, Table 4) | EC50 (SARS-CoV-2; [3]) | further results |
| --- | --- | --- | --- | --- |
| CCCCCCCCCCCCCCCCCCOC[C@@H](COP(=O)(O)OC[C@H]1O[C@@](C#N)(c2ccc3c(N)ncnn23)[C@H](O)[C@@H]1O)OCc1ccccc1 [Example 18, ((2R,3S,4R,5R)-5-(4-aminopyrrolo[2,1-f][1,2,4]triazin-7-yl)-5-cyano-3,4-dihydroxytetrahydrofuran-2-yl)methyl ((S)-2-(benzyloxy)-3-(octadecyloxy)propyl) hydrogen phosphate] |  |  |  | EC50 ([1]; 72 h, read-out: RSV-Fluc EC50 (NHBE), NHBE cells, three days, Table 1): 0.11 µM; CC50 at 48 h ([2]; 48 hours, Table 1): > 50 µM; EC50 (SARS-CoV-2; Severe acute respiratory syndrome coronavirus 2, 48 h, read-out: SARS-CoV-2 EC50): 0.32 µM |
| CCCCCCCCCCCCCCCCCCCOC[C@H](COP(=O)(O)OC[C@H]1O[C@@](C#N)(c2ccc3c(N)ncnn23)[C@H](O)[C@@H]1O)OCc1cc(F)cc(C#N)c1 [Example 70, ((2R,3S,4R,5R)-5-(4-aminopyrrolo[2,1-f][1,2,4]triazin-7-yl)-5-cyano-3,4-dihydroxytetrahydrofuran-2-yl)methyl ((R)-2-((3-cyano-5-fluorobenzyl)oxy)-3-(nonadecyloxy)propyl) hydrogen phosphate] |  |  |  | CC50 (MT4 cytotoxicity (CC50); MT4 CC50, Table 2a): 0.854 µM; EC50 ([1]; 72 h, read-out: RSV-Fluc EC50 (NHBE), NHBE cells, three days, Table 2): 0.06 µM; EC50 ([1]; read-out: RSV EC50, Table 2a): 0.066 µM; CC50 at 48 h ([2]; Table 3): 1.1 µM |
| CCCCCCCCCCCCCCCCCCOC[C@H](COP(=O)(O)OC[C@H]1O[C@@](C#N)(c2ccc3c(N)ncnn23)[C@H](O)[C@@H]1O)OCc1ccc(C#N)cc1OC [Example 114, [(2R,3S,4R,5R)-5-(4-Aminopyrrolo[2,1-f][1,2,4]triazin-7-yl)-5-cyano-3,4-dihydroxy-tetrahydrofuran-2-yl]methyl [(2R)-2-[(4-cyano-2-methoxy-phenyl)methoxy]-3-octadecoxy-propyl] hydrogen phosphate] | 1.88 µM | 0.093 µM | 0.48 µM |  |
| CCCCCCCCCCCCCCCCCCOC[C@H](COP(=O)(O)OC[C@H]1O[C@@](C#N)(c2ccc3c(N)ncnn23)[C@H](O)[C@@H]1O)OCc1ccc(OC)c(C#N)c1 [Example 115, [(2R,3S,4R,5R)-5-(4-Aminopyrrolo[2,1-f][1,2,4]triazin-7-yl)-5-cyano-3,4-dihydroxy-tetrahydrofuran-2-yl]methyl [(2R)-2-[(3-cyano-4-methoxy-phenyl)methoxy]-3-octadecoxy-propyl] hydrogen phosphate] | 1.46 µM | 0.166 µM | 0.39 µM |  |
| CCCCCCCCCCCCCCCCCCOC[C@H](COP(=O)(O)OC[C@H]1O[C@@](C#N)(c2ccc3c(N)ncnn23)[C@H](O)[C@@H]1O)OCc1ccc(C#N)nc1 [Example 116, [(2R,3S,4R,5R)-5-(4-aminopyrrolo[2,1-f][1,2,4]triazin-7-yl)-5-cyano-3,4-dihydroxy-tetrahydrofuran-2-yl]methyl [(2R)-2-[(6-cyano-3-pyridyl)methoxy]-3-octadecoxy-propyl] hydrogen phosphate] | 0.69 µM | 0.026 µM | 0.17 µM |  |
| CCCCCCCCCCCCCCOC[C@H](COP(=O)(O)OC[C@H]1O[C@@](C#N)(c2ccc3c(N)ncnn23)[C@H](O)[C@@H]1O)OCc1cc(F)cc(C#N)c1 [Example 117, [(2R,3S,4R,5R)-5-(4-aminopyrrolo[2,1-f][1,2,4]triazin-7-yl)-5-cyano-3,4-dihydroxy-tetrahydrofuran-2-yl]methyl [(2R)-2-[(3-cyano-5-fluoro-phenyl)methoxy]-3-tetradecoxy-propyl] hydrogen phosphate] | 0.473 µM | 0.015 µM | 0.2 µM |  |
| CCCCCCCCCCCCCCCOC[C@H](COP(=O)(O)OC[C@H]1O[C@@](C#N)(c2ccc3c(N)ncnn23)[C@H](O)[C@@H]1O)OCc1cc(F)cc(C#N)c1 [Example 118, [(2R,3S,4R,5R)-5-(4-Aminopyrrolo[2,1-f][1,2,4]triazin-7-yl)-5-cyano-3,4-dihydroxy-tetrahydrofuran-2-yl]methyl [(2R)-2-[(3-cyano-5-fluoro-phenyl)methoxy]-3-pentadecoxy-propyl] hydrogen phosphate] | 0.291 µM | 0.037 µM | 0.12 µM |  |
| CCCCCCCCCCCCCCOCCCCOP(=O)(O)OC[C@H]1O[C@@](C#N)(c2ccc3c(N)ncnn23)[C@H](O)[C@@H]1O [Example 120, [(2R,3S,4R,5R)-5-(4-Aminopyrrolo[2,1-f][1,2,4]triazin-7-yl)-5-cyano-3,4-dihydroxy-tetrahydrofuran-2-yl]methyl 4-tetradecoxybutyl hydrogen phosphate] | 12.1 µM | 0.224 µM | 10 µM |  |
| CCCCCCCCCCCCCCCCCOCCCCOP(=O)(O)OC[C@H]1O[C@@](C#N)(c2ccc3c(N)ncnn23)[C@H](O)[C@@H]1O [Example 121, [(2R,3S,4R,5R)-5-(4-Aminopyrrolo[2,1-f][1,2,4]triazin-7-yl)-5-cyano-3,4-dihydroxy-tetrahydrofuran-2-yl]methyl 4-heptadecoxybutyl hydrogen phosphate] | 10.4 µM | 0.262 µM | 8.9 µM |  |
| CCCCCCCCCCCCCCCCCCOC[C@H](COP(=O)(O)OC[C@H]1O[C@@](C#N)(c2ccc3c(N)ncnn23)[C@H](O)[C@@H]1O)OCc1cnc(C(F)(F)F)nc1 [Example 122, [(2R,3S,4R,5R)-5-(4-Aminopyrrolo[2,1-f][1,2,4]triazin-7-yl)-5-cyano-3,4-dihydroxy-tetrahydrofuran-2-yl]methyl [(2R)-3-octadecoxy-2-[[2-(trifluoromethyl)pyrimidin-5-yl]methoxy]propyl] hydrogen phosphate] | 0.995 µM | 0.039 µM | 0.45 µM |  |
| CCCCCCCCCCCCCCCCCCOC[C@H](COP(=O)(O)OC[C@H]1O[C@@](C#N)(c2ccc3c(N)ncnn23)[C@H](O)[C@@H]1O)OCc1ccc(C(F)(F)F)nc1 [Example 123, [(2R,3S,4R,5R)-5-(4-Aminopyrrolo[2,1-f][1,2,4]triazin-7-yl)-5-cyano-3,4-dihydroxy-tetrahydrofuran-2-yl]methyl [(2R)-3-octadecoxy-2-[[6-(trifluoromethyl)-3-pyridyl]methoxy]propyl] hydrogen phosphate] | 1.04 µM | 0.055 µM | 0.34 µM |  |
| CCCCCCCCCCCCCCCCCCOC[C@H](COP(=O)(O)OC[C@H]1O[C@@](C#N)(c2ccc3c(N)ncnn23)[C@H](O)[C@@H]1O)OCc1ccc(C#N)cn1 [Example 124, [(2R,3S,4R,5R)-5-(4-Aminopyrrolo[2,1-f][1,2,4]triazin-7-yl)-5-cyano-3,4-dihydroxy-tetrahydrofuran-2-yl]methyl [(2R)-2-[(5-cyano-2-pyridyl)methoxy]-3-octadecoxy-propyl] hydrogen phosphate] | 0.703 µM | 0.027 µM | 0.2 µM |  |
| CCCCCCCC/C=C/CCCCCCCCOC[C@H](COP(=O)(O)OC[C@H]1O[C@@](C#N)(c2ccc3c(N)ncnn23)[C@H](O)[C@@H]1O)OCc1cc(F)cc(C#N)c1 [Example 126, ((2R,3S,4R,5R)-5-(4-aminopyrrolo[2,1-f][1,2,4]triazin-7-yl)-5-cyano-3,4-dihydroxytetrahydrofuran-2-yl)methyl ((R)-2-((3-cyano-5-fluorobenzyl)oxy)-3-(((E)-octadec-9-en-1-yl)oxy)propyl) hydrogen phosphate] | 0.366 µM | 0.03 µM | 0.14 µM |  |
| CCCCCCCC/C=C/CCCCCCCCOC[C@H](COP(=O)(O)OC[C@H]1O[C@@](C#N)(c2ccc3c(N)ncnn23)[C@H](O)[C@@H]1O)OCc1ccc(C#N)cc1F [Example 127, ((2R,3S,4R,5R)-5-(4-aminopyrrolo[2,1-f][1,2,4]triazin-7-yl)-5-cyano-3,4-dihydroxytetrahydrofuran-2-yl)methyl ((R)-2-((4-cyano-2-fluorobenzyl)oxy)-3-(((E)-octadec-9-en-1-yl)oxy)propyl) hydrogen phosphate] | 3.91 µM | 0.028 µM | 0.14 µM |  |
| CCCCCCCC/C=C\CCCCCCCCOC[C@H](COP(=O)(O)OC[C@H]1O[C@@](C#N)(c2ccc3c(N)ncnn23)[C@H](O)[C@@H]1O)OCc1ccc(C#N)cc1F [Example 129, ((2R,3S,4R,5R)-5-(4-aminopyrrolo[2,1-f][1,2,4]triazin-7-yl)-5-cyano-3,4-dihydroxytetrahydrofuran-2-yl)methyl ((R)-2-((4-cyano-2-fluorobenzyl)oxy)-3-(((Z)-octadec-9-en-1-yl)oxy)propyl) hydrogen phosphate] | 2.43 µM | 0.022 µM | 0.11 µM |  |
| CCCCCCCC/C=C\CCCCCCCCOC[C@H](COP(=O)(O)OC[C@H]1O[C@@](C#N)(c2ccc3c(N)ncnn23)[C@H](O)[C@@H]1O)OCc1ccccc1 [Example 130, ((2R,3S,4R,5R)-5-(4-aminopyrrolo[2,1-f][1,2,4]triazin-7-yl)-5-cyano-3,4-dihydroxytetrahydrofuran-2-yl)methyl ((R)-2-(benzyloxy)-3-(((Z)-octadec-9-en-1-yl)oxy)propyl) hydrogen phosphate] | 3.56 µM | 0.039 µM | 0.11 µM |  |
| CCCCCCCC/C=C/CCCCCCCCOC[C@H](COP(=O)(O)OC[C@H]1O[C@@](C#N)(c2ccc3c(N)ncnn23)[C@H](O)[C@@H]1O)OCc1ccccc1 [Example 131, ((2R,3S,4R,5R)-5-(4-aminopyrrolo[2,1-f][1,2,4]triazin-7-yl)-5-cyano-3,4-dihydroxytetrahydrofuran-2-yl)methyl ((R)-2-(benzyloxy)-3-(((E)-octadec-9-en-1-yl)oxy)propyl) hydrogen phosphate] | 3.39 µM | 0.039 µM | 0.11 µM |  |
